Source: ChEMBL document CHEMBL6121036, “Evaluation of Cereblon-Directing Warheads for the Development of Orally Bioavailable PROTACs” (J Med Chem, 2025)
≈ marks a conversion by molar mass, not a printed value. Calls of active or inactive are those of the source. No cut-off for these calls is given here.

What was measured:
[1] = biological target: T1, Protein cereblon/Bromodomain-containing protein 4 (Homo sapiens, UniProt O60885+Q96SW2); assay: PROTAC activity at CRBN/Hibit-tagged BRD4 (unknown origin) expressed in HEK293 cells co-expressing LgBiT assessed as degradation of BRD4 incubated for 24 hrs by […] glo-max assay; assay type: cell-based
[2] = biological target: T1, Protein cereblon/Bromodomain-containing protein 4; assay: PROTAC activity at CRBN/Hibit-tagged BRD4 (unknown origin) expressed in HEK293 cells co-expressing LgBiT assessed as degradation of BRD4 incubated for 24 hrs by […] glo-max assay relative to control; assay type: cell-based
[3] = biological target: T1, Protein cereblon/Bromodomain-containing protein 4; assay: PROTAC activity at CRBN/Hibit-tagged BRD4 (unknown origin) expressed in HEK293 cells co-expressing LgBiT assessed as degradation rate incubated for 24 hrs by […] glo-max assay; assay type: cell-based
[4] = tested on: MV4-11; assay: Cytotoxicity against human MV4-11 cells assessed as reduction in cell viability incubated for 72 hrs by cell-titer glo assay; assay type: functional, cell-based; settings: MV4-11, 72 h
[5] = tested on: HD-MB03; assay: Cytotoxicity against human HD-MB03 cells assessed as reduction in cell viability incubated for 72 hrs by cell-titer glo assay; assay type: functional, cell-based; settings: HD-MB03, 72 h
[6] = Kinetic aqueous solubility of the compound at pH 7.4; assay type: physicochemical; settings: read-out: Kinetic_solubility
[7] = Metabolic stability in mouse liver microsomes assessed as half life; assay type: ADME, Microsome; settings: liver microsomes
[8] = biological target: Protein cereblon/Bromodomain-containing protein 4/DNA damage-binding protein 1 (Homo sapiens) (UniProt O60885+Q96SW2+Q16531); assay: Binding affinity to his-tagged CRBN/DDB1/GST-tagged BRD4 (49 to 170 residues)(unknown origin) assessed as ternary complex formation (AUC) incubated for 1 hr by luminescence based Alphascreen assay; assay type: protein assay
[9] = Cmax in female CD1 mouse at 10 mg/kg, po measured upto 24 hrs by LC-MS/MS analysis; assay type: ADME, organism-based; settings: in vivo
[10] = Chemical stability in human MV4-11 cell culture media at 400 uM measured upto 72 hrs by UPLC analysis; assay type: physicochemical
[11] = Chemical stability in human HD-MB03 cell culture media at 400 uM measured upto 72 hrs by UPLC analysis; assay type: physicochemical
[12] = Effect on BRD3 level in human MV4-11 cells assessed as fold change at 100 nM measured after 4 hrs; assay type: functional
[13] = Effect on BRD4 level in human MV4-11 cells assessed as fold change at 100 nM measured after 4 hrs; assay type: functional
[14] = Effect on BRD2 level in human MV4-11 cells assessed as fold change at 100 nM measured after 4 hrs; assay type: functional
[15] = Effect on MYC level in human MV4-11 cells assessed as fold change at 100 nM measured after 4 hrs; assay type: functional
[16] = Effect on FYTTD1 level in human MV4-11 cells assessed as fold change at 100 nM measured after 4 hrs; assay type: functional
[17] = Effect on CCNF level in human MV4-11 cells assessed as fold change at 100 nM measured after 4 hrs; assay type: functional
[18] = Effect on CDC42EP3 level in human MV4-11 cells assessed as fold change at 100 nM measured after 4 hrs; assay type: functional
[19] = Effect on MCL1 level in human MV4-11 cells assessed as fold change at 100 nM measured after 4 hrs; assay type: functional
[20] = Effect on PLAU level in human MV4-11 cells assessed as fold change at 100 nM measured after 4 hrs; assay type: functional
[21] = Effect on ZFP36L2 level in human MV4-11 cells assessed as fold change at 100 nM measured after 4 hrs; assay type: functional
[22] = Effect on FGL2 level in human MV4-11 cells assessed as fold change at 100 nM measured after 4 hrs; assay type: functional
[23] = Effect on NSA2 level in human MV4-11 cells assessed as fold change at 100 nM measured after 4 hrs; assay type: functional
[24] = Effect on CCND3 level in human MV4-11 cells assessed as fold change at 100 nM measured after 4 hrs; assay type: functional
[25] = Effect on AURKA level in human MV4-11 cells assessed as fold change at 100 nM measured after 4 hrs; assay type: functional
[26] = Effect on NOP53 level in human MV4-11 cells assessed as fold change at 100 nM measured after 4 hrs; assay type: functional
[27] = Effect on PLK1 level in human MV4-11 cells assessed as fold change at 100 nM measured after 4 hrs; assay type: functional
[28] = Effect on RNF166 level in human MV4-11 cells assessed as fold change at 100 nM measured after 4 hrs; assay type: functional
[29] = Effect on ZBTB21 level in human MV4-11 cells assessed as fold change at 100 nM measured after 4 hrs; assay type: functional
[30] = Effect on TP53 level in human MV4-11 cells assessed as fold change at 100 nM measured after 4 hrs; assay type: functional
[31] = Permeability in MDCK-II cells incubated for 1 hr by UPLC/MS/UV analysis; assay type: ADME, cell-based, Canis lupus familiaris; settings: dog, read-out: permeability
[32] = Stability in mouse plasma assessed as half life by UPLC-MS/MS analysis; assay type: ADME, cell-free
[33] = AUC last in female CD1 mouse at 10 mg/kg, po measured upto 24 hrs by LC-MS/MS analysis; assay type: ADME, organism-based; settings: in vivo
[34] = tested on: HEK293; assay: Cytotoxicity against HEK293 cells expressing LgBiT fused HiBiT-BRD2 measured after 24 hrs by cell titer-glo assay; assay type: toxicity, cell-based; settings: human, hek293, 24 h
[35] = biological target: T2, Protein cereblon/Bromodomain-containing protein 2 (Homo sapiens) (UniProt P25440+Q96SW2); assay: PROTAC activity at CRBN/Hibit-tagged CRISPR BRD2 (unknown origin) expressed in HEK293 cells coexpressing LgBiT assessed as degradation of BRD2 by […] glo-max assay; assay type: cell-based
[36] = biological target: T3, Protein cereblon/Bromodomain-containing protein 3 (Homo sapiens) (UniProt Q15059+Q96SW2); assay: PROTAC activity at CRBN/Hibit-tagged CRISPR BRD3 (unknown origin) expressed in HEK293 cells co-expressing LgBiT assessed as degradation of BRD3 by […] glo-max assay; assay type: cell-based
[37] = biological target: T1, Protein cereblon/Bromodomain-containing protein 4; assay: PROTAC activity at CRBN/Hibit-tagged CRISPR BRD4 (unknown origin) expressed in HEK293 cells co-expressing LgBiT assessed as degradation of BRD4 by […] glo-max assay; assay type: cell-based
[38] = biological target: T2, Protein cereblon/Bromodomain-containing protein 2 (Homo sapiens); assay: PROTAC activity at CRBN/Hibit-tagged CRISPR BRD2 (unknown origin) expressed in HEK293 cells coexpressing LgBiT assessed as degradation of BRD2 by […] glo-max assay relative to control; assay type: cell-based
[39] = biological target: T3, Protein cereblon/Bromodomain-containing protein 3 (Homo sapiens); assay: PROTAC activity at CRBN/Hibit-tagged CRISPR BRD3 (unknown origin) expressed in HEK293 cells co-expressing LgBiT assessed as degradation of BRD3 by […] glo-max assay relative to control; assay type: cell-based
[40] = biological target: T1, Protein cereblon/Bromodomain-containing protein 4; assay: PROTAC activity at CRBN/Hibit-tagged CRISPR BRD4 (unknown origin) expressed in HEK293 cells co-expressing LgBiT assessed as degradation of BRD4 by […] glo-max assay relative to control; assay type: cell-based
[41] = biological target: T2, Protein cereblon/Bromodomain-containing protein 2 (Homo sapiens); assay: PROTAC activity at CRBN/Hibit-tagged CRISPR BRD2 (unknown origin) expressed in HEK293 cells coexpressing LgBiT assessed as degradation of BRD2 measured after 10 to 14 hrs by […] glo-max assay; assay type: cell-based; settings: time 10-14 hrs
[42] = biological target: T3, Protein cereblon/Bromodomain-containing protein 3 (Homo sapiens); assay: PROTAC activity at CRBN/Hibit-tagged CRISPR BRD3 (unknown origin) expressed in HEK293 cells co-expressing LgBiT assessed as degradation of BRD3 measured after 13 to 16 hrs by […] glo-max assay; assay type: cell-based; settings: time 13-16 hrs
[43] = biological target: T1, Protein cereblon/Bromodomain-containing protein 4; assay: PROTAC activity at CRBN/Hibit-tagged CRISPR BRD4 (unknown origin) expressed in HEK293 cells co-expressing LgBiT assessed as degradation of BRD4 measured after 18 to 24 hrs by […] glo-max assay; assay type: cell-based; settings: time 18-24 hrs
[44] = biological target: Protein cereblon (Homo sapiens) (UniProt Q96SW2); assay: Binding affinity to CRBN (unknown origin)

Compound	DC50 [1] [nM]	Emax [2] [%]	Activity [3] [fRLU/hr]	IC50 [4] [nM]	IC50 [5] [nM]	solubility kinetic [6] [µM]	half-life [7] [h]	Activity [8]	fold change (FC) [12]	fold change (FC) [13]	fold change (FC) [14]	fold change (FC) [15]	fold change (FC) [16]	fold change (FC) [17]	fold change (FC) [18]	fold change (FC) [19]	fold change (FC) [20]	fold change (FC) [21]	fold change (FC) [22]	fold change (FC) [23]	further results
Cc1sc2c(c1C)C(c1ccc(Cl)cc1)=N[C@@H](CC(=O)N1CCC(CN3CCN(c4ccc(N5CCC(=O)NC5=O)cc4)CC3)CC1)c1nnc(C)n1-2	2.74	46.4	0.047	0.66	15.1	72.5 (≈ 54.7 µg/mL)	1.42	Active	-2.99	-2.92	-2.79	-2.09	-1.21	-0.89	-1.16	-1.01	-0.89	-0.91	-1	-0.85	Cmax [9]: 345 ng/mL; Stability [10]: Stable; Stability [11]: Stable; fold change (FC) [24]: -0.7; fold change (FC) [25]: -0.74; fold change (FC) [26]: -0.72; fold change (FC) [27]: -0.67; fold change (FC) [28]: -0.3; fold change (FC) [29]: -0.1; fold change (FC) [30]: 1.65; Papp at 1 h [31]: 0.29 ×10⁻⁶ cm/s; half-life [32]: 16.5 h; AUC(0-t) at 24 h [33]: 1420 ng·h/mL
Cc1sc2c(c1C)C(c1ccc(Cl)cc1)=N[C@@H](CC(=O)N1CCC(CN3CCN(c4ccc5c(c4)CN(C4CCC(=O)NC4=O)C5=O)CC3)CC1)c1nnc(C)n1-2 (stereo partly drawn)	0.58	96.6	0.201	0.14	1.56	48.4 (≈ 39.1 µg/mL)	0.75	Active	-3.9	-3.57	-2.91	-1.72	-1.54	-1.47	-1.25	-1.06	-1.05	-1	-1.05	-1.06	Activity [34]: Non-toxic; Activity [35]: Active; Activity [36]: Active; Activity [37]: Active; Activity [38]: > 95%; Activity [39]: > 95%; Activity [40]: > 90%; Activity [41]: Active; Activity [42]: Active; Activity [43]: Active; Activity [44]: Active; fold change (FC) [24]: -0.97; fold change (FC) [25]: -0.9; fold change (FC) [26]: -0.82; fold change (FC) [27]: -0.78; fold change (FC) [28]: -0.92; fold change (FC) [29]: -0.1; fold change (FC) [30]: 1.87; Papp at 1 h [31]: 3.4 ×10⁻⁶ cm/s; half-life [32]: 29.8 h
